Assay results taken from the NIST ThermoML archive (doi:10.1021/je800355e).
“And” between values parts separate entries of the source, which are not always exact repeats. Identical values can stand only once. ± gives the expanded uncertainty stated by the source.

Assay: activity coefficient (dimensionless); of the first substance listed, at infinite dilution; xn = mol fraction of the nth substance listed
Conditions: 101 kPa, Liquid, x1 = 0

| Compound | activity coefficient (293.15 K, Chromatography) | activity coefficient (313.15 K, Chromatography) | activity coefficient (333.15 K, Chromatography) | activity coefficient (353.15 K, Chromatography) | activity coefficient (298.15 K, Chromatography) | activity coefficient (298.15 K) | activity coefficient (313.15 K) | activity coefficient (333.15 K) | activity coefficient (353.15 K) |
| --- | --- | --- | --- | --- | --- | --- | --- | --- | --- |
| CCO [ethanol] + CCCCCC[n+]1ccn(C)c1.O=S(=O)([N-]S(=O)(=O)C(F)(F)F)C(F)(F)F | 1.85 and 1.82 | 1.49 and 1.47 | 1.24 and 1.23 | 1.05 and 1.03 |  |  |  |  |  |
| CCC(C)O (stereo unspecified) [butan-2-ol] + CCCCCC[n+]1ccn(C)c1.O=S(=O)([N-]S(=O)(=O)C(F)(F)F)C(F)(F)F | 2.03 ± 0.16 | 1.67 and 1.65 | 1.37 and 1.38 | 1.2 and 1.21 |  |  |  |  |  |
| CCO [ethanol] + CCCCn1cc[n+](C)c1.COS(=O)(=O)[O-] |  | 0.61 ± 0.05 | 0.62 ± 0.05 | 0.59 ± 0.05 | 0.64 ± 0.05 |  |  |  |  |
| CO [methanol] + CCCCn1cc[n+](C)c1.COS(=O)(=O)[O-] |  | 0.36 ± 0.04 | 0.33 ± 0.04 | 0.38 ± 0.04 | 0.39 ± 0.04 |  |  |  |  |
| CO [methanol] + CCCCn1cc[n+](C)c1.F[P-](F)(F)(F)(F)F | 2.59 ± 0.18 | 2.06 ± 0.14 | 1.67 ± 0.11 | 1.36 ± 0.09 |  |  |  |  |  |
| CCC(C)O (stereo unspecified) [butan-2-ol] + CCCCn1cc[n+](C)c1.F[P-](F)(F)(F)(F)F | 6.47 ± 0.44 | 4.8 ± 0.33 | 3.69 ± 0.25 | 2.87 ± 0.2 |  |  |  |  |  |
| CCCCO [butan-1-ol] + CCCCn1cc[n+](C)c1.COS(=O)(=O)[O-] |  |  |  |  |  | 1.68 ± 0.14 | 1.44 ± 0.11 | 1.37 ± 0.1 | 1.21 ± 0.08 |
| CC(C)O [propan-2-ol] + CCCCn1cc[n+](C)c1.F[P-](F)(F)(F)(F)F | 4.8 ± 0.33 | 3.64 ± 0.25 | 2.83 ± 0.19 | 2.25 ± 0.15 |  |  |  |  |  |
| CC(C)CO [2-methyl-1-propanol] + CCCCn1cc[n+](C)c1.F[P-](F)(F)(F)(F)F | 8.39 ± 0.57 | 5.74 ± 0.39 | 4.23 ± 0.29 | 3.23 ± 0.22 |  |  |  |  |  |
| CC(C)O [propan-2-ol] + CCCCCC[n+]1ccn(C)c1.O=S(=O)([N-]S(=O)(=O)C(F)(F)F)C(F)(F)F | 1.95 ± 0.15 | 1.56 and 1.53 | 1.17 and 1.15 | 1.08 and 1.02 |  |  |  |  |  |
| CCCCO [butan-1-ol] + CCCCCC[n+]1ccn(C)c1.O=S(=O)([N-]S(=O)(=O)C(F)(F)F)C(F)(F)F | 2.5 ± 0.19 | 2.02 ± 0.16 | 1.63 ± 0.12 | 1.33 ± 0.1 |  |  |  |  |  |
| CCCO [propan-1-ol] + CCCCCC[n+]1ccn(C)c1.O=S(=O)([N-]S(=O)(=O)C(F)(F)F)C(F)(F)F | 2.08 and 2.09 | 1.68 and 1.65 | 1.38 ± 0.1 | 1.19 and 1.18 |  |  |  |  |  |
| CCCO [propan-1-ol] + CCCCn1cc[n+](C)c1.COS(=O)(=O)[O-] |  | 0.88 ± 0.07 | 0.89 ± 0.07 | 0.82 ± 0.07 | 0.96 ± 0.08 |  |  |  |  |
| CC(C)(C)O [2-methylpropan-2-ol] + CCCCCC[n+]1ccn(C)c1.O=S(=O)([N-]S(=O)(=O)C(F)(F)F)C(F)(F)F | 1.68 and 1.66 | 1.4 and 1.35 | 1.15 and 1.16 | 1.04 and 1.03 |  |  |  |  |  |
| CC(C)CO [2-methyl-1-propanol] + CCCCCC[n+]1ccn(C)c1.O=S(=O)([N-]S(=O)(=O)C(F)(F)F)C(F)(F)F | 2.39 and 2.44 | 1.88 and 1.87 | 1.49 and 1.52 | 1.3 ± 0.1 |  |  |  |  |  |
| CC(C)O [propan-2-ol] + CCCCn1cc[n+](C)c1.COS(=O)(=O)[O-] |  | 0.94 ± 0.08 | 0.91 ± 0.07 | 0.88 ± 0.07 | 1.03 ± 0.08 |  |  |  |  |
| CO [methanol] + CCCCCC[n+]1ccn(C)c1.O=S(=O)([N-]S(=O)(=O)C(F)(F)F)C(F)(F)F | 1.54 and 1.5 | 1.27 and 1.26 | 1.08 and 1.05 | 0.93 and 0.91 |  |  |  |  |  |
| CC(C)(C)O [2-methylpropan-2-ol] + CCCCn1cc[n+](C)c1.COS(=O)(=O)[O-] |  | 1.27 ± 0.1 | 1.19 ± 0.1 | 1.22 ± 0.1 | 1.38 ± 0.11 |  |  |  |  |
| CC(C)(C)O [2-methylpropan-2-ol] + CCCCn1cc[n+](C)c1.F[P-](F)(F)(F)(F)F | 4.83 ± 0.33 | 3.68 ± 0.25 | 2.97 ± 0.2 | 2.45 ± 0.17 |  |  |  |  |  |
| CCO [ethanol] + CCCCn1cc[n+](C)c1.F[P-](F)(F)(F)(F)F | 3.81 ± 0.26 | 2.94 ± 0.2 | 2.32 ± 0.16 | 1.85 ± 0.12 |  |  |  |  |  |
| CCC(C)O (stereo unspecified) [butan-2-ol] + CCCCn1cc[n+](C)c1.COS(=O)(=O)[O-] |  | 1.31 ± 0.11 | 1.27 ± 0.1 | 1.21 ± 0.1 | 1.45 ± 0.12 |  |  |  |  |
| CCCCO [butan-1-ol] + CCCCn1cc[n+](C)c1.F[P-](F)(F)(F)(F)F | 8.17 ± 0.56 | 5.9 ± 0.4 | 4.49 ± 0.31 | 3.43 ± 0.23 |  |  |  |  |  |
| CCCO [propan-1-ol] + CCCCn1cc[n+](C)c1.F[P-](F)(F)(F)(F)F | 5.53 ± 0.38 | 4.14 ± 0.28 | 3.18 ± 0.22 | 2.45 ± 0.17 |  |  |  |  |  |
| CC(C)CO [2-methyl-1-propanol] + CCCCn1cc[n+](C)c1.COS(=O)(=O)[O-] |  | 1.29 ± 0.11 | 1.28 ± 0.1 | 1.12 ± 0.09 | 1.44 ± 0.12 |  |  |  |  |
